Read-outs that look alike come from different tables or passages of the source. Peptide text beside a SMILES is read from it.
Experiments:
Assay type in all cases: cell-based
ChemR23 (CMKLR1) = target: T1, ChemR23 (CMKLR1) (Homo sapiens, UniProt Q99788); test: PathHunter β-Arrestin assay, ChemR23 (CMKLR1), agonist and antagonist mode; conditions: for Rank Order / % Max Activity / % Max Inhibition: ChemR23; for Rank Order: agonist; for % Max Activity: agonist mode; for % Max Inhibition: antagonist mode, chemerin at EC80; for agonist activity, in words / antagonist activity, in words: human ChemR23; for agonist activity, in words: FIG. 2A/2B; for antagonist activity, in words: chemerin at 80% maximum signal
T1 construct: host or cells: CHO
T1 sequence (Q99788 1-373): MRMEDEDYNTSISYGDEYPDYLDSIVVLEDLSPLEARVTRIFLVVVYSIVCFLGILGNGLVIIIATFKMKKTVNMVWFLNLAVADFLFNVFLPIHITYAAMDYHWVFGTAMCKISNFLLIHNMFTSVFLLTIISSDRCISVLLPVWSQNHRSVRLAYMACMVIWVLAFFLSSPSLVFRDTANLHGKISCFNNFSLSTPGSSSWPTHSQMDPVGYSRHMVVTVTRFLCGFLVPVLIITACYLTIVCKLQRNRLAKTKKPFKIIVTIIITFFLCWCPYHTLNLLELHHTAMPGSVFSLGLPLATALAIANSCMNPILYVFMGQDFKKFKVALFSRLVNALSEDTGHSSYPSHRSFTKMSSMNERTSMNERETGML
Description: (§1) The DiscoveRx PathHunter™ eXpress GPCR activity assay was employed to test agonist and antagonist activities of the chemerin peptides against the GPCRs ChemR23 and GPR1. Two assay formats were tested, the PathHunter β-Arrestin assay and the Hit Hunter cAMP Hunter assay.
(§2) The PathHunter β-Arrestin assay monitors the activation of a GPCR in a homogenous, non-imaging assay format using a technology developed by DiscoveRx called complementation, which utilizes an enzyme fragment complementation (EFC) assay with β-galactosidase (β-Gal) as the functional reporter. The enzyme is split into two complementary portions expressed as fusion proteins in the cell. The Enzyme Acceptor (EA) is fused to β-Arrestin and the ProLink donor peptide is fused to the GPCR of interest. Upon GPCR stimulation, β-Arrestin is recruited to the receptor for desensitization, bringing the two fragments of β-Gal together and allowing complementation to occur.
(§3) The assay involves CHO cell lines that express 1) a GPCR of interest (e.g. ChemR23 or GPR1) that has a fragment of the βgal enzyme fused to the C-terminus of the receptor and 2) a β-arrestin fused to the main β-gal enzyme. When the agonist binds to the receptor, β-arrestin is recruited to the receptor and the β-gal enzyme is complemented by the fragment from the GPCR thus forming a functional β-gal enzyme. A substrate is then added and luminescence is generated to detect β-arrestin recruitment.
(§4) The protocol used was a standard protocol employed by DiscoveRx PathHunter™ profiling service. […] Once it was established that the cells were healthy and growing normally, cells were passaged from flasks using cell dissociation reagent and seeded into white walled clear bottom 384-well microplates for compound profiling. For profiling, cells were seeded at a density of 5000 cells per well in a total volume of 20 μL and were allowed to adhere and recover overnight prior to compound addition.
(§5) For the agonist assay, intermediate dilution of compound stocks were generated such that 5 μL of 5× compound could be added to each well with a final DMSO concentration of 1% of total volume. For profiling compound in agonist mode, the cells were incubated in the presence of compound at 37° C. for 90 minutes.
(§6) For the antagonist assay, agonist dose curves were performed the morning of profiling to determine the EC80 value for the following antagonist testing with compounds. 5 μL of 5× agonist (i.e. chemerin) was added to each well with an equal concentration of vehicle present. EC80 agonist concentration was determined directly from agonist dose curve. For antagonist determination, cells were preincubated with antagonist followed by agonist challenge at the EC80 concentration: 4. 5 μL of 5× compound added to cells and incubated at 37° C. for 30 minutes. 5. 5 μL of 6× EC80 agonist added to cells and incubated at 37° C. for 90 minutes.
(§7) Microplates were read following signal generation with a PerkinElmer Envision™ instrument for chemiluminescent signal detection
(§8) Dose curves in the presence and absence of compound were plotted using GraphPad Prism or Activity Base. For agonist mode assays, percentage activity was calculated using the following formula: % Activity=100%×(Mean RLU of test sample−mean RLU of vehicle control)/(mean MAX RLU control ligand−mean RLU of vehicle control)). For antagonist mode assays, percentage inhibition was calculated using the following formula: % Inhibition=100%×(1−(Mean RLU of test sample−mean RLU of vehicle control)/(mean RLU of EC80 control−mean RLU of vehicle control)).

mChemR23 = target: T2, mChemR23 (Mus musculus, UniProt P97468); test: PathHunter β-Arrestin assay, mouse ChemR23
T2 construct: host or cells: CHO (stated generally for the PathHunter assay)
T2 sequence (P97468 1-371): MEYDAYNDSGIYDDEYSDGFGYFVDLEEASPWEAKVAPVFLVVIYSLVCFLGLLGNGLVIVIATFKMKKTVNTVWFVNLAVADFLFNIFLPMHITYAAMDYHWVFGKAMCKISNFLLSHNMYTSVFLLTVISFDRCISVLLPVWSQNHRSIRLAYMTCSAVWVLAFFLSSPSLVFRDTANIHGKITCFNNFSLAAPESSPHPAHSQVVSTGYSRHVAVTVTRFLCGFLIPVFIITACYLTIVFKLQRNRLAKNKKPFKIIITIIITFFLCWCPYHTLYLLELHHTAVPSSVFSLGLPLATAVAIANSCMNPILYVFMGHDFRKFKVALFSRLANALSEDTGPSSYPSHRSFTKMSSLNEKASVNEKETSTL
Description: as §1, §2, §3, §4, §5
as §6, with “5 μL of 6× EC80 agonist added to cells and incubated at 37° C. for 90 minutes.” left out
as §7, §8

ChemR23 = target: T3, ChemR23 (Homo sapiens, UniProt Q99788); test: Hit Hunter cAMP Hunter assay, human ChemR23
T3 sequence (Q99788 1-373): T1 sequence (Q99788 1-373)
Description: as §1
as §4, with “reagent buffer” for “reagent”, “10000” for “5000”, “addition. Cells were treated the following day using the protocols shown below. cAMP modulation was determined using the DiscoveRx HitHunter cAMP XS+ assay.” for “addition.”
For profiling compound in agonist mode, the cells were incubated in the presence of compound at 37° C. for 30 minutes.
EC80 agonist concentration was determined directly from agonist dose curve.
Microplates were read following signal generation with a PerkinElmer Envision™ instrument for chemiluminescent signal detection.
Dose curves in the presence and absence of compound were plotted using GraphPad Prism or Activity Base.

Row | SMILES | IC50 (ChemR23 (CMKLR1)) [µM] | Rank Order (ChemR23 (CMKLR1)) | % Max Activity (ChemR23 (CMKLR1)) [%] | % Max Inhibition (ChemR23 (CMKLR1)) [%] | agonist activity, in words (ChemR23 (CMKLR1)) | IC50 (mChemR23) [µM] | IC50 (ChemR23) [µM] | EC50 (ChemR23 (CMKLR1)) [µM] | antagonist activity, in words (ChemR23 (CMKLR1)) | EC50 (mChemR23) [µM] | EC50 (ChemR23 (CMKLR1); read-out: RC50 (uM), EC50, Arrestin, Agonist, AssayTarget ChemR23) [µM]
1 | C[C@H](N)C(=O)NCC(=O)N[C@@H](CCC(=O)O)C(=O)N[C@@H](CC(=O)O)C(=O)N1CCC[C@H]1C(=O)N[C@@H](Cc1c[nH]cn1)C(=O)N[C@@H](CO)C(=O)N[C@@H](Cc1ccccc1)C(=O)N[C@@H](Cc1ccc(O)cc1)C(=O)N[C@@H](Cc1ccccc1)C(=O)N1CCC[C@H]1C(=O)NCC(=O)N[C@@H](CCC(N)=O)C(=O)N[C@@H](Cc1ccccc1)C(=O)N[C@@H](C)C(=O)N[C@@H](Cc1ccccc1)C(=O)N[C@@H](CO)C(=O)O [C17 (human)] (H-AGEDPHSFYFPGQFAFS-OH; N-terminus and C-terminus assumed) | > 10 | 2 | 67.5 | 0 | exhibited agonist activity | > 10 | > 10 |  |  |  | 
2 | C[C@H](N)C(=O)NCC(=O)N[C@@H](CCC(=O)O)C(=O)N[C@@H](CC(=O)O)C(=O)N1CCC[C@H]1C(=O)N[C@@H](Cc1c[nH]cn1)C(=O)N[C@@H](CO)C(=O)N[C@@H](Cc1ccccc1)C(=O)N[C@@H](Cc1ccc(O)cc1)C(=O)N[C@@H](Cc1ccccc1)C(=O)N1CCC[C@H]1C(=O)NCC(=O)N[C@@H](CCC(N)=O)C(=O)N[C@@H](Cc1ccccc1)C(=O)N[C@@H](C)C(=O)O [C15 (human)] (H-AGEDPHSFYFPGQFA-OH; N-terminus and C-terminus assumed) | > 10 | 3 | 0.8 | 0 | neither human nor mouse chemerin C15 peptides acted as agonists |  | > 10 | > 10 | neither human nor mouse chemerin C15 peptides acted as antagonists | > 10 | 
3 | CC(C)C[C@H](NC(=O)[C@H](Cc1ccccc1)NC(=O)[C@H](Cc1ccc(O)cc1)NC(=O)CNC(=O)[C@H](Cc1c[nH]cn1)NC(=O)[C@@H]1CCCN1C(=O)[C@H](CC(=O)O)NC(=O)[C@H](CCC(=O)O)NC(=O)CNC(=O)[C@H](C)N)C(=O)N1CCC[C@H]1C(=O)NCC(=O)N[C@@H](CCC(N)=O)C(=O)N[C@@H](Cc1ccccc1)C(=O)N[C@@H](C)C(=O)O [mC15] (H-AGEDPHGYFLPGQFA-OH; N-terminus and C-terminus assumed) | > 10 | 3 | 0.4 | 0 | neither human nor mouse chemerin C15 peptides acted as agonists | > 10 | > 10 | > 10 | neither human nor mouse chemerin C15 peptides acted as antagonists |  | > 10

— patent US20140349943A1, “TOPICAL FORMULATIONS OF CHEMERIN C15 PEPTIDES FOR THE TREATMENT OF DERMATOLOGICAL CONDITIONS” (priority 2011, published 2014)
